The results in this text go back to ChEMBL document CHEMBL4814033, “Unique para-aminobenzenesulfonyl oxadiazoles as novel structural potential membrane active antibacterial agents towards drug-resistant methicillin resistant Staphylococcus aureus” (2021).

The MIC is the lowest concentration found to suppress growth.

The structures appear in SMILES notation. ≈ marks a conversion by molar mass, not a printed value. Calls of active or inactive are those of the source. The calls are words filed in the database; no cut-off is given here.

Assay [1] deals with Pseudomonas aeruginosa. The experiment in a line: Antibacterial activity against Pseudomonas aeruginosa by broth microdilution assay. The format is functional. A general note: Broth dilution looks for growth in wells or tubes with falling amounts of substance.
Assay [2] relates to Staphylococcus aureus. The experiment in a line: Antibacterial activity against methicillin-resistant Staphylococcus aureus by broth microdilution assay. The class given is functional.
In assay [3] the test system is Staphylococcus aureus. Nature of the assay: Antibacterial activity against Staphylococcus aureus ATCC 25923 by broth microdilution assay. The class given is functional.
In assay [4] the test system is Escherichia coli. Nature of the assay: Antibacterial activity against Escherichia coli ATCC 25922 by broth microdilution assay. The format is functional.
The subject of a further assay is Enterococcus faecalis. Nature of the assay: Antibacterial activity against Enterococcus faecalis by broth microdilution assay. The format is functional.
The next assay relates to Acinetobacter baumannii. Nature of the assay: Antibacterial activity against Acinetobacter baumannii by broth microdilution assay. The format is functional.
The subject of assay [5] is Staphylococcus aureus. Nature of the assay: Antibacterial activity against Staphylococcus aureus by broth microdilution assay. The format is functional.
The test system of assay [6] is Staphylococcus aureus. Nature of the assay: Antibacterial activity against Staphylococcus aureus ATCC 29213 by broth microdilution assay. The class given is functional.
In assay [7] the test system is Pseudomonas aeruginosa. Nature of the assay: Antibacterial activity against Pseudomonas aeruginosa ATCC 27853 by broth microdilution assay. The format is functional.
A further assay has as its system Klebsiella pneumoniae. Nature of the assay: Antibacterial activity against Klebsiella pneumonia by broth microdilution assay. The class given is functional.
The test system of assay [8] is Escherichia coli. The experiment in a line: Antibacterial activity against Escherichia coli by broth microdilution assay. The class given is functional.
In assay [9] the test system is Staphylococcus aureus. The experiment in a line: Potency index, ratio of MIC of norfloxacin to MIC of compound for antibacterial activity against methicillin-resistant Staphylococcus aureus by broth microdilution assay. The class given is functional.
For assay [10], the system named is Staphylococcus aureus. Nature of the assay: Antibacterial activity against methicillin-resistant Staphylococcus aureus assessed as reduction in bacterial growth measured after 16 passages. The format is functional, organism-based.

Take `CCOC(=O)CSc1nnc(CS(=O)(=O)c2ccc(NC(C)=O)cc2)o1`: the MIC against Pseudomonas aeruginosa [1] is 64 µg/mL (≈ 160 µM); against Staphylococcus aureus [2] it was 16 µg/mL (≈ 40.1 µM); in the assay with Staphylococcus aureus [3], 64 µg/mL (≈ 160 µM); with Escherichia coli [4], 128 µg/mL (≈ 320 µM); against Enterococcus faecalis it was 128 µg/mL (≈ 320 µM); with Acinetobacter baumannii it was 32 µg/mL (≈ 80.1 µM). Besides, the MIC was 128 µg/mL (≈ 320 µM) against Staphylococcus aureus [5]; 64 µg/mL (≈ 160 µM) in the assay on Staphylococcus aureus [6]; 128 µg/mL (≈ 320 µM) in the assay with Pseudomonas aeruginosa [7]; 64 µg/mL (≈ 160 µM) in the assay on Klebsiella pneumoniae; 32 µg/mL (≈ 80.1 µM) in the assay on Escherichia coli [8].

In the case of `CC(=O)Nc1ccc(S(=O)(=O)Cc2nnc(SCCF)o2)cc1`, the minimum inhibitory concentration (MIC) against Pseudomonas aeruginosa [1] is 64 µg/mL (≈ 178 µM); in the assay on Staphylococcus aureus [2], 2 µg/mL (≈ 5.56 µM); against Staphylococcus aureus [3], 128 µg/mL (≈ 356 µM); in the assay on Escherichia coli [4], 64 µg/mL (≈ 178 µM); with Enterococcus faecalis, 64 µg/mL (≈ 178 µM); against Acinetobacter baumannii, 64 µg/mL (≈ 178 µM). In addition, the MIC against Staphylococcus aureus [5] was 64 µg/mL (≈ 178 µM); in the assay with Staphylococcus aureus [6] it was 32 µg/mL (≈ 89 µM); in the assay on Pseudomonas aeruginosa [7] it was 128 µg/mL (≈ 356 µM); in the assay with Klebsiella pneumoniae, 32 µg/mL (≈ 89 µM); in the assay on Escherichia coli [8], 32 µg/mL (≈ 89 µM). In addition, the Ratio with Staphylococcus aureus [9] is reported as 8.

Regarding `CCN(CC)CCSc1nnc(CS(=O)(=O)c2ccc(NC(C)=O)cc2)o1`, the MIC against Pseudomonas aeruginosa [1] came out at 128 µg/mL (≈ 310 µM); in the assay with Staphylococcus aureus [2], 32 µg/mL (≈ 77.6 µM); with Staphylococcus aureus [3], 64 µg/mL (≈ 155 µM); with Escherichia coli [4], 128 µg/mL (≈ 310 µM); with Enterococcus faecalis, 64 µg/mL (≈ 155 µM); with Acinetobacter baumannii it was 32 µg/mL (≈ 77.6 µM). The minimum inhibitory concentration (MIC) is 128 µg/mL (≈ 310 µM) against Staphylococcus aureus [5]; 64 µg/mL (≈ 155 µM) against Staphylococcus aureus [6]; 64 µg/mL (≈ 155 µM) against Pseudomonas aeruginosa [7]; 128 µg/mL (≈ 310 µM) against Klebsiella pneumoniae; 64 µg/mL (≈ 155 µM) in the assay with Escherichia coli [8].

Turning to `CCn1cc(C(=O)O)c(=O)c2cc(F)c(N3CCNCC3)cc21` [NORFLOXACIN], the minimum inhibitory concentration (MIC) was determined as 4 µg/mL (≈ 12.5 µM) with Pseudomonas aeruginosa [1]; 16 µg/mL (≈ 50.1 µM) against Staphylococcus aureus [2]; 8 µg/mL (≈ 25.1 µM) with Staphylococcus aureus [3]; 8 µg/mL (≈ 25.1 µM) in the assay with Escherichia coli [4]; 8 µg/mL (≈ 25.1 µM) with Enterococcus faecalis; 8 µg/mL (≈ 25.1 µM) in the assay with Acinetobacter baumannii. Moreover, the minimum inhibitory concentration (MIC) with Staphylococcus aureus [5] is 4 µg/mL (≈ 12.5 µM); against Staphylococcus aureus [6] it was 8 µg/mL (≈ 25.1 µM); with Pseudomonas aeruginosa [7], 8 µg/mL (≈ 25.1 µM); with Klebsiella pneumoniae, 16 µg/mL (≈ 50.1 µM); against Escherichia coli [8] it was 8 µg/mL (≈ 25.1 µM). For the same molecule, the outcome with Staphylococcus aureus [10] was inactive.

For `CC(=O)Nc1ccc(S(=O)(=O)Cc2nnc(SCc3ccc(Cl)cc3Cl)o2)cc1`, the minimal inhibitory concentration (MIC) in the assay with Pseudomonas aeruginosa [1] was 64 µg/mL (≈ 135 µM); against Staphylococcus aureus [2] it was 2 µg/mL (≈ 4.23 µM); in the assay on Staphylococcus aureus [3], 256 µg/mL (≈ 542 µM); in the assay with Escherichia coli [4], 64 µg/mL (≈ 135 µM); in the assay on Enterococcus faecalis it was 128 µg/mL (≈ 271 µM); against Acinetobacter baumannii, 32 µg/mL (≈ 67.7 µM). For the same molecule, the MIC came to 64 µg/mL (≈ 135 µM) against Staphylococcus aureus [5]; 32 µg/mL (≈ 67.7 µM) against Staphylococcus aureus [6]; 256 µg/mL (≈ 542 µM) with Pseudomonas aeruginosa [7]; 16 µg/mL (≈ 33.9 µM) against Klebsiella pneumoniae; 16 µg/mL (≈ 33.9 µM) in the assay with Escherichia coli [8].

Regarding `CC(=O)Nc1ccc(S(=O)(=O)Cc2nnc(S)o2)cc1`, the MIC with Pseudomonas aeruginosa [1] turned out to be 256 µg/mL (≈ 817 µM); against Staphylococcus aureus [2] it was 256 µg/mL (≈ 817 µM); against Staphylococcus aureus [3] it was 256 µg/mL (≈ 817 µM); with Escherichia coli [4] it was 256 µg/mL (≈ 817 µM); against Enterococcus faecalis, 128 µg/mL (≈ 408 µM); against Acinetobacter baumannii, 256 µg/mL (≈ 817 µM). The MIC against Staphylococcus aureus [5], against Staphylococcus aureus [6], against Pseudomonas aeruginosa [7], in the assay on Klebsiella pneumoniae and with Escherichia coli [8] was 256 µg/mL (≈ 817 µM) in each case.

Consider `C=CCSc1nnc(CS(=O)(=O)c2ccc(NC(C)=O)cc2)o1`, for which the minimum inhibitory concentration (MIC) amounted to 256 µg/mL (≈ 724 µM) with Pseudomonas aeruginosa [1]; 256 µg/mL (≈ 724 µM) against Staphylococcus aureus [2]; 256 µg/mL (≈ 724 µM) in the assay on Staphylococcus aureus [3]; 256 µg/mL (≈ 724 µM) against Escherichia coli [4]; 64 µg/mL (≈ 181 µM) against Enterococcus faecalis; 256 µg/mL (≈ 724 µM) in the assay with Acinetobacter baumannii. In addition, the minimum inhibitory concentration (MIC) against Staphylococcus aureus [5], in the assay on Staphylococcus aureus [6], in the assay on Pseudomonas aeruginosa [7], against Klebsiella pneumoniae and with Escherichia coli [8] was 256 µg/mL (≈ 724 µM) throughout.

For `CCCCSc1nnc(CS(=O)(=O)c2ccc(NC(C)=O)cc2)o1`, the MIC against Pseudomonas aeruginosa [1], against Staphylococcus aureus [2], with Staphylococcus aureus [3], with Escherichia coli [4], in the assay with Enterococcus faecalis and in the assay with Acinetobacter baumannii was 256 µg/mL (≈ 693 µM) throughout. In addition, the MIC stood at 128 µg/mL (≈ 346 µM) against Staphylococcus aureus [5]; 256 µg/mL (≈ 693 µM) with Staphylococcus aureus [6]; 256 µg/mL (≈ 693 µM) in the assay with Pseudomonas aeruginosa [7]; 256 µg/mL (≈ 693 µM) against Klebsiella pneumoniae; 128 µg/mL (≈ 346 µM) against Escherichia coli [8].
